Source: publication PMC5601738, “Facile total synthesis of lysicamine and the anticancer activities of the Ru^II, Rh^III, Mn^II and Zn^II complexes of lysicamine” (Oncotarget, 2017)

Experiments:
[1] = system: apoptosis genes in HepG2 cells; assay: RT-qPCR array, human apoptosis PCR array (PAHS-012Z); type: cell-based; settings: Hep-G2 cells, 14 μM, 24 h, vs control
HepG2 cells = assay: ROS, intracellular Ca2+ and mitochondrial membrane potential (DCFH-DA, Fluo-3 AM, JC-1); settings: HepG2, 24 h; 2 at 3.5, 7.0, […]; 3 at 7.0, 14.0, 28.0 μM
Protocol: The changes in the ROS level, intracellular Ca^2+ and loss of ΔΨm in the HepG2 cells were detected by the DCFH-DA, Fluo-3 AM, and JC-1 fluorescent probes, respectively (see in Figure 5A). Green fluorescence represented higher ROS levels, more intracellular Ca^2+, and reduced ΔΨm.
Measurement of oxygen species (ROS), Determination of cell cycle and apoptotic related
intracellular Ca2+ and mitochondrial membrane proteins
and then resuspended in 1mL of DCFH-DA (100 μM) onto a PVDF membrane.
cytometry or fluorescence microscope.

For `COc1cc2ccnc3c2c(c1OC)-c1ccccc1C3=O.COc1cc2ccnc3c2c(c1OC)-c1ccccc1C3=O.COc1cc2ccnc3c2c(c1OC)-c1ccccc1C3=O.ClC(Cl)Cl.ClC(Cl)Cl.ClC(Cl)Cl.[Mn+2].[O-][Cl+3]([O-])([O-])[O-].[O-][Cl+3]([O-])([O-])[O-]` [Complex 3, [Mn(LY)3](ClO4)2·3CHCl3], the “Fold up/down-regulation, ABL1” value [1] was 1.14, the “Fold up/down-regulation, ACTB” value [1] was -3.23 and the “Fold up/down-regulation, AIFM1” value [1] was 1.39. For the same compound, the “Fold up/down-regulation, AKT1” value [1] was -1.50, the “Fold up/down-regulation, APAF1” value [1] was -1.08 and the “Fold up/down-regulation, B2M” value [1] was 1.32. For the same compound, the “Fold up/down-regulation, BAD” value [1] was -1.23, the “Fold up/down-regulation, BAG1” value [1] was -3.76 and the “Fold up/down-regulation, BAG3” value [1] was 1.12. The “Fold up/down-regulation, BAK1” value [1] was 2.10, the “Fold up/down-regulation, BAX” value [1] was 1.03 and the “Fold up/down-regulation, BCL2” value [1] was 1.08. The “Fold up/down-regulation, BCL2A1” value [1] was 15.30, the “Fold up/down-regulation, BCL2L1” value [1] was -1.97 and the “Fold up/down-regulation, BCL2L2” value [1] was 1.01. For the same compound, the “Fold up/down-regulation, BCL2L10” value [1] was 1.21, the “Fold up/down-regulation, BCL2L11” value [1] was 2.71 and the “Fold up/down-regulation, BCL10” value [1] was 1.24. The “Fold up/down-regulation, BFAR” value [1] was 1.36, the “Fold up/down-regulation, BID” value [1] was -1.24 and the “Fold up/down-regulation, BIK” value [1] was 3.02. The “Fold up/down-regulation, BIRC2” value [1] was 1.65, the “Fold up/down-regulation, BIRC3” value [1] was -1.79 and the “Fold up/down-regulation, BIRC5” value [1] was -1.29. For the same compound, the “Fold up/down-regulation, BIRC6” value [1] was 1.22, the “Fold up/down-regulation, BNIP2” value [1] was 1.48 and the “Fold up/down-regulation, BNIP3” value [1] was 1.82. For the same compound, the “Fold up/down-regulation, BNIP3L” value [1] was 2.06, the “Fold up/down-regulation, BRAF” value [1] was 1.10 and the “Fold up/down-regulation, CASP1” value [1] was 1.61. The “Fold up/down-regulation, CASP2” value [1] was -1.21, the “Fold up/down-regulation, CASP3” value [1] was 1.46 and the “Fold up/down-regulation, CASP4” value [1] was 1.39. For the same compound, the “Fold up/down-regulation, CASP5” value [1] was 1.47, the “Fold up/down-regulation, CASP6” value [1] was 1.46 and the “Fold up/down-regulation, CASP7” value [1] was 1.23. For the same compound, the “Fold up/down-regulation, CASP8” value [1] was 1.13, the “Fold up/down-regulation, CASP9” value [1] was 3.47 and the “Fold up/down-regulation, CASP10” value [1] was -1.45. For the same compound, the “Fold up/down-regulation, CASP14” value [1] was 8.51, the “Fold up/down-regulation, CD27” value [1] was 4.42 and the “Fold up/down-regulation, CD40” value [1] was -1.09. The “Fold up/down-regulation, CD40LG” value [1] was 1.16, the “Fold up/down-regulation, CD70” value [1] was -1.62 and the “Fold up/down-regulation, CFLAR” value [1] was 1.19. The “Fold up/down-regulation, CIDEA” value [1] was 2.51, the “Fold up/down-regulation, CIDEB” value [1] was -1.33 and the “Fold up/down-regulation, CRADD” value [1] was 1.01. For the same compound, the “Fold up/down-regulation, CYCS” value [1] was 2.27, the “Fold up/down-regulation, DAPK1” value [1] was -1.22 and the “Fold up/down-regulation, DFFA” value [1] was 1.10. The “Fold up/down-regulation, DIABLO” value [1] was 1.68, the “Fold up/down-regulation, FADD” value [1] was 1.24 and the “Fold up/down-regulation, FAS” value [1] was -1.45. For the same compound, the “Fold up/down-regulation, FASLG” value [1] was 1.37, the “Fold up/down-regulation, GADD45A” value [1] was 3.98 and the “Fold up/down-regulation, GAPDH” value [1] was -1.17. The “Fold up/down-regulation, HPRT1” value [1] was -1.87, the “Fold up/down-regulation, HRK” value [1] was 49.72 and the “Fold up/down-regulation, IGF1R” value [1] was -2.51. For the same compound, the “Fold up/down-regulation, IL10” value [1] was 1.11, the “Fold up/down-regulation, LTA” value [1] was -1.40 and the “Fold up/down-regulation, LTBR” value [1] was -1.24. For the same compound, the “Fold up/down-regulation, MCL1” value [1] was 2.15, the “Fold up/down-regulation, NAIP” value [1] was -1.05 and the “Fold up/down-regulation, NFKB1” value [1] was -1.85. For the same compound, the “Fold up/down-regulation, NOD1” value [1] was -1.30, the “Fold up/down-regulation, NOL3” value [1] was -1.07 and the “Fold up/down-regulation, PYCARD” value [1] was 2.80. For the same compound, the “Fold up/down-regulation, RIPK2” value [1] was 1.45, the “Fold up/down-regulation, RPLP0” value [1] was 1.17 and the “Fold up/down-regulation, TNF” value [1] was 16.66. For the same compound, the “Fold up/down-regulation, TNFRSF1A” value [1] was -1.06, the “Fold up/down-regulation, TNFRSF1B” value [1] was -1.05 and the “Fold up/down-regulation, TNFRSF9” value [1] was 110.29. For the same compound, the “Fold up/down-regulation, TNFRSF10A” value [1] was -1.02, the “Fold up/down-regulation, TNFRSF10B” value [1] was 1.11 and the “Fold up/down-regulation, TNFRSF11B” value [1] was 3.22. For the same compound, the “Fold up/down-regulation, TNFRSF21” value [1] was 3.02, the “Fold up/down-regulation, TNFRSF25” value [1] was 2.68 and the “Fold up/down-regulation, TNFSF8” value [1] was 3.25. For the same compound, the “Fold up/down-regulation, TNFSF10” value [1] was 1.70, the “Fold up/down-regulation, TP53” value [1] was -1.05 and the “Fold up/down-regulation, TP53BP2” value [1] was 1.53. For the same compound, the “Fold up/down-regulation, TP73” value [1] was 1.38, the “Fold up/down-regulation, TRADD” value [1] was 1.11 and the “Fold up/down-regulation, TRAF2” value [1] was -1.21. For the same compound, the “Fold up/down-regulation, TRAF3” value [1] was 1.01, the “Fold up/down-regulation, XIAP” value [1] was 1.26 and the “FoldChange, ABL1 relative expression” value [1] was 1.14. For the same compound, the “FoldChange, ACTB relative expression” value [1] was 0.31, the “FoldChange, AIFM1 relative expression” value [1] was 1.39 and the “FoldChange, AKT1 relative expression” value [1] was 0.67. The “FoldChange, APAF1 relative expression” value [1] was 0.92, the “FoldChange, B2M relative expression” value [1] was 1.32 and the “FoldChange, BAD relative expression” value [1] was 0.81. The “FoldChange, BAG1 relative expression” value [1] was 0.27, the “FoldChange, BAG3 relative expression” value [1] was 1.12 and the “FoldChange, BAK1 relative expression” value [1] was 2.10. The “FoldChange, BAX relative expression” value [1] was 1.03, the “FoldChange, BCL2A1 relative expression” value [1] was 15.30 and the “FoldChange, BCL2L1 relative expression” value [1] was 0.51. For the same compound, the “FoldChange, BCL2L2 relative expression” value [1] was 1.01, the “FoldChange, BCL2L10 relative expression” value [1] was 1.21 and the “FoldChange, BCL2L11 relative expression” value [1] was 2.71. The “FoldChange, BCL2 relative expression” value [1] was 1.08, the “FoldChange, BCL10 relative expression” value [1] was 1.24 and the “FoldChange, BFAR relative expression” value [1] was 1.36. For the same compound, the “FoldChange, BID relative expression” value [1] was 0.80, the “FoldChange, BIK relative expression” value [1] was 3.02 and the “FoldChange, BIRC2 relative expression” value [1] was 1.65. The “FoldChange, BIRC3 relative expression” value [1] was 0.56, the “FoldChange, BIRC5 relative expression” value [1] was 0.77 and the “FoldChange, BIRC6 relative expression” value [1] was 1.22. For the same compound, the “FoldChange, BNIP2 relative expression” value [1] was 1.48, the “FoldChange, BNIP3L relative expression” value [1] was 2.06 and the “FoldChange, BNIP3 relative expression” value [1] was 1.82. The “FoldChange, BRAF relative expression” value [1] was 1.10, the “FoldChange, CASP1 relative expression” value [1] was 1.61 and the “FoldChange, CASP2 relative expression” value [1] was 0.83. For the same compound, the “FoldChange, CASP3 relative expression” value [1] was 1.46, the “FoldChange, CASP4 relative expression” value [1] was 1.39 and the “FoldChange, CASP5 relative expression” value [1] was 1.47. The “FoldChange, CASP6 relative expression” value [1] was 1.46, the “FoldChange, CASP7 relative expression” value [1] was 1.23 and the “FoldChange, CASP8 relative expression” value [1] was 1.13. The “FoldChange, CASP9 relative expression” value [1] was 3.47, the “FoldChange, CASP10 relative expression” value [1] was 0.69 and the “FoldChange, CASP14 relative expression” value [1] was 8.51. The “FoldChange, CD27 relative expression” value [1] was 4.42, the “FoldChange, CD40LG relative expression” value [1] was 1.16 and the “FoldChange, CD40 relative expression” value [1] was 0.92. The “FoldChange, CD70 relative expression” value [1] was 0.62, the “FoldChange, CFLAR relative expression” value [1] was 1.19 and the “FoldChange, CIDEA relative expression” value [1] was 2.51. The “FoldChange, CIDEB relative expression” value [1] was 0.75, the “FoldChange, CRADD relative expression” value [1] was 1.01 and the “FoldChange, CYCS relative expression” value [1] was 2.27. For the same compound, the “FoldChange, DAPK1 relative expression” value [1] was 0.82, the “FoldChange, DFFA relative expression” value [1] was 1.10 and the “FoldChange, DIABLO relative expression” value [1] was 1.68. For the same compound, the “FoldChange, FADD relative expression” value [1] was 1.24, the “FoldChange, FAS relative expression” value [1] was 0.69 and the “FoldChange, FASLG relative expression” value [1] was 1.37. The “FoldChange, GADD45A relative expression” value [1] was 3.98, the “FoldChange, GAPDH relative expression” value [1] was 0.86 and the “FoldChange, HPRT1 relative expression” value [1] was 0.54. For the same compound, the “FoldChange, HRK relative expression” value [1] was 49.72, the “FoldChange, IGF1R relative expression” value [1] was 0.40 and the “FoldChange, IL10 relative expression” value [1] was 1.11. The “FoldChange, LTA relative expression” value [1] was 0.71, the “FoldChange, LTBR relative expression” value [1] was 0.81 and the “FoldChange, MCL1 relative expression” value [1] was 2.15. For the same compound, the “FoldChange, NAIP relative expression” value [1] was 0.95, the “FoldChange, NFKB1 relative expression” value [1] was 0.54 and the “FoldChange, NOD1 relative expression” value [1] was 0.77. The “FoldChange, NOL3 relative expression” value [1] was 0.93, the “FoldChange, PYCARD relative expression” value [1] was 2.80 and the “FoldChange, RIPK2 relative expression” value [1] was 1.45. For the same compound, the “FoldChange, RPLP0 relative expression” value [1] was 1.17, the “FoldChange, TNF relative expression” value [1] was 16.66 and the “FoldChange, TNFRSF1A relative expression” value [1] was 0.94. For the same compound, the “FoldChange, TNFRSF1B relative expression” value [1] was 0.96, the “FoldChange, TNFRSF9 relative expression” value [1] was 110.29 and the “FoldChange, TNFRSF10A relative expression” value [1] was 0.98. For the same compound, the “FoldChange, TNFRSF10B relative expression” value [1] was 1.11, the “FoldChange, TNFRSF11B relative expression” value [1] was 3.22 and the “FoldChange, TNFRSF21 relative expression” value [1] was 3.02. For the same compound, the “FoldChange, TNFRSF25 relative expression” value [1] was 2.68, the “FoldChange, TNFSF8 relative expression” value [1] was 3.25 and the “FoldChange, TNFSF10 relative expression” value [1] was 1.70. For the same compound, the “FoldChange, TP53BP2 relative expression” value [1] was 1.53, the “FoldChange, TP53 relative expression” value [1] was 0.95 and the “FoldChange, TP73 relative expression” value [1] was 1.38. The “FoldChange, TRADD relative expression” value [1] was 1.11, the “FoldChange, TRAF2 relative expression” value [1] was 0.82 and the “FoldChange, TRAF3 relative expression” value [1] was 1.01. For the same compound, the “FoldChange, XIAP relative expression” value [1] was 1.26 and the “ROS, intracellular Ca2+ and ΔΨm” value (HepG2 cells) was “caused overproduction of ROS, rising intracellular Ca^2+, and loss of Δψm”.
